What was measured:
DENV2 NS2B–NS3 protease = molecular target: T1, DENV2 NS2B–NS3 protease (Dengue virus type 2, UniProt P14340); test: In vitro DENV2 NS2B/NS3pro inhibition assay using a FRET substrate; type: biochemical; conditions: IC50 (µM), DENV protease inhibitory activity, 5 µM substrate, 10 nM NS2b-NS3pro, compounds at 1, 10 and 100 µM, 1 h at RT; compounds 3ao–3av
T1 construct: Activity of recombinant dengue 2 virus NS3 protease in the presence of a truncated NS2B co-factor; The N-terminal domain of NS3 contains a highly conserved protease-active core; made in house; host or cells: Escherichia coli BL21(DE3)
Experimental: To assess the anti-DENV NS2B–NS3 activity of the compounds, we expressed the DENV2 NS2B–NS3 protease in BL21DE3 cells and subsequently purified it using Ni-NTA affinity chromatography, as outlined in Materials and Methods ([39], [40]). The protease activity assay was performed using different concentrations (1, 2.5, 5, 10, 25, 50, 75, and 100 µM) of a fluorogenic substrate (Abs-Nle-Lys-Arg-Arg-Ser-3-(NO2)Tyr) at various time points (5, 15, 30, 45, and 60 min), as described previously ([39], [41]). […] Therefore, all subsequent assays were conducted with a 1 h incubation time.
The selected compounds were analyzed using in vitro protease assays performed in black 96-well plates. […] All assays were performed in triplicate. The release of free AMC was measured using a Varioskan LUX multimode microplate reader (Thermo Fisher Scientific) at excitation and emission wavelengths of 380 and 460 nm, respectively. Control fluorescence values obtained in the absence of inhibitors were considered 100%, and those obtained in the presence of inhibitors were calculated as the percentage of inhibition of the control using Microsoft Excel and plotted using Origin Pro 2023b. The background AMC in the absence of protease was subtracted before data analysis. Further, protease assay was done using different concentration of the compounds (1, 10, and 100 µM) to evaluate the IC50 for the in vitro assay. IC50 curves were fitted and determined by fitting the nonlinear equation in Origin2023b software. A similar approach was used to analyze the enzymatic kinetics of protease inhibition. The reaction progress was monitored by the release of free aminomethylcoumarin (AMC), as previously described. The substrate was incubated with or without the inhibitor in the aforementioned reaction buffer in the presence of varying concentrations of the substrate. The reactions were initiated by the addition of the NS2B–NS3 protease. Protease activity was monitored for 1 h based on the initial rate of increase in fluorescence intensity at 460 nm, with an excitation wavelength of 380 nm. The results were analyzed using Origin Pro 2023b and the Michaelis–Menten equation to obtain the apparent Michaelis–Menten constants and maximal velocities. All assays were performed in triplicate. For each tested compound, two different concentrations of the inhibitor (0, 10, and 25 µM) were used at various concentrations (0–250 μM) of the substrate. The mechanism of inhibition was determined by observing the deviations in the apparent Km and Vmax values.

JEV = test: Time course of JEV genomic RNA accumulation in BHK-21 cells (qRT-PCR); type: cell-based; conditions: JEV MOI 0.1, BHK-21, 10 µM; for effect on viral genomic RNA abundance at early time points: 1 and 9 hpi; for effect on viral genomic RNA abundance at later time point: 18 hpi
Description: This is because the initial translation of the viral RNA genome leads to the production of a viral polyprotein, which upon processing by the NS2B–NS3 protease, leads to the generation of viral RdRp (NS5) and other NS proteins necessary for RNA synthesis ([15]). Thus, inhibition of the NS2B–NS3 protease by the two potential compounds should affect viral genomic RNA accumulation within infected cells only at later time points post-infection ([46]). To validate this hypothesis, we assessed the effect of the compounds upon dynamic accumulation of viral RNA at different times of post-infection. Cells were infected with the virus in the absence or presence of 3aq or 3au (10 µM) and harvested at different time points post-infection, and viral genomic RNA copies were estimated using qRT-PCR. […] As expected, the abundance of viral genomic RNA remained low at the early time points of infection (1 and 9 hpi) and subsequently peaked at 18 hpi (Fig. 9B). […] This is an indirect effect of NS2B–NS3 protease inhibition, which in turn blocks polyprotein processing and assembly of the viral RNA synthesis machinery.
Fig 9 Detailed molecular mechanism of the inhibitory action of the compounds. (A and B) BHK-21 cells were infected with JEV virus (MOI = 0.1) for 1, 9, and 18 h with or without 10 µM of compounds. Total RNA extracted at indicated times was evaluated by qRT-PCR. The data are expressed as fold changes of the viral RNA levels normalized to GAPDH control relative to the corresponding DMSO treated samples at each time point. (B) Same experiment as in (A) but expressed as relative to the initial inoculation amount (at 1 hpi). BHK-21 cells were infected with JEV (MOI: 0.1) and treated with 3au (C) and 3aq (D) pre + during + post (−3), during + post (0), and post (3, 6, 9) infection. Viral RNA load were assessed at 24 hpi using qRT-PCR. The data are expressed as fold changes of the viral RNA levels normalized to GAPDH control relative to the corresponding DMSO-treated sample. Each experiment is performed in biological triplicate and repeated thrice. Statistical significance was analyzed by two-tailed equal variance Student’s t-test: *P < 0.05, **P < 0.01, ***P < 0.001, and ****P < 0.0001.
To quantify the viral RNA copy number, quantitative RT-PCR (qRT-PCR) was performed in duplicate using iTaq Universal SYBR Green Supermix (Bio-Rad). The cDNAs used for qPCR analysis were prepared using Power SYBR Green PCR Master Mix (Bio-Rad, #172–5125) in a QuantStudio5 Applied Biosystems real-time PCR system. […] Delta Ct for both control and compound-treated samples was determined and subsequently analyzed by determining the delta Ct to determine the mRNA expression of target genes in control vs treated samples.

T1 sequence (P14340 1476-1653): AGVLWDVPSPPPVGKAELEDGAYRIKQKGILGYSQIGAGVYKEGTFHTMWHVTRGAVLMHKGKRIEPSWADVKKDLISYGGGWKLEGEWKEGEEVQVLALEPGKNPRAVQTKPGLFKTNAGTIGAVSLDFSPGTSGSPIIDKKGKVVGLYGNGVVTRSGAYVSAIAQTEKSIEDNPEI
T1 sequence (P14340 1398-1437): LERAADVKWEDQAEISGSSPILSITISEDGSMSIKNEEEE

| SMILES | IC50 (DENV2 NS2B–NS3 protease) | effect on viral genomic RNA abundance at early time points (JEV) | effect on viral genomic RNA abundance at later time point (JEV) |
| --- | --- | --- | --- |
| COc1ccc(-c2csc(N/N=C(\C)c3ccc(O)cc3)n2)cc1 [3aq] | 15.1 µM | no effect | drastic effect |
| COc1ccc(-c2csc(N/N=C(\C)c3cc(O)cc(O)c3)n2)cc1 [3au] | 20.8 µM | no effect | drastic effect |

Reference: PMC11963559, “Identification of novel thiazole derivatives as flaviviral protease inhibitors effective against Dengue (DENV2) and Japanese encephalitis viruses” (Antimicrobial Agents and Chemotherapy, 2025)
